System: P12-Ichikawa
Test: cell viability relative to DMSO control; higher = less cytotoxic
Details: 48 h
Summary of the method: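 Library compounds in DMSO were pin-dosed in an 11-point threefold series (47 μM to 0.79 nM) onto leukemia cells in 1536-well plates (5 μl). Plates held 500 cells/well of NOMO1 or SEM or 1000 cells/well of P12-Ichikawa, each adapted for at least four passages in each medium. Luminescence was read with CellTiter-Glo One after 48 h at 37°C. Viability means the per-plate percentage relative to DMSO wells, using cell-free wells as background.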

[1] = HPLM + 10% dialyzed FBS, 0.000781 µM
[2] = HPLM + 10% dialyzed FBS, 0.00234 µM
[3] = HPLM + 10% dialyzed FBS, 0.00702 µM
[4] = HPLM + 10% dialyzed FBS, 0.0211 µM
[5] = HPLM + 10% dialyzed FBS, 0.0632 µM
[6] = HPLM + 10% dialyzed FBS, 0.19 µM
[7] = HPLM + 10% dialyzed FBS, 0.569 µM
[8] = HPLM + 10% dialyzed FBS, 1.71 µM
[9] = HPLM + 10% dialyzed FBS, 5.12 µM
[10] = HPLM + 10% dialyzed FBS, 15.4 µM
[11] = HPLM + 10% dialyzed FBS, 46.1 µM
[12] = RPMI 5 mM glucose + 10% FBS, 0.000781 µM
[13] = RPMI 5 mM glucose + 10% FBS, 0.00234 µM
[14] = RPMI 5 mM glucose + 10% FBS, 0.00702 µM
[15] = RPMI 5 mM glucose + 10% FBS, 0.0211 µM
[16] = RPMI 5 mM glucose + 10% FBS, 0.0632 µM
[17] = RPMI 5 mM glucose + 10% FBS, 0.19 µM
[18] = RPMI 5 mM glucose + 10% FBS, 0.569 µM
[19] = RPMI 5 mM glucose + 10% FBS, 1.71 µM
[20] = RPMI 5 mM glucose + 10% FBS, 5.12 µM
[21] = RPMI 5 mM glucose + 10% FBS, 15.4 µM
[22] = RPMI 5 mM glucose + 10% FBS, 46.1 µM
[23] = RPMI 5 mM glucose + 10% dialyzed FBS, 0.000781 µM
[24] = RPMI 5 mM glucose + 10% dialyzed FBS, 0.00234 µM
[25] = RPMI 5 mM glucose + 10% dialyzed FBS, 0.00702 µM
[26] = RPMI 5 mM glucose + 10% dialyzed FBS, 0.0211 µM
[27] = RPMI 5 mM glucose + 10% dialyzed FBS, 0.0632 µM
[28] = RPMI 5 mM glucose + 10% dialyzed FBS, 0.19 µM
[29] = RPMI 5 mM glucose + 10% dialyzed FBS, 0.569 µM
[30] = RPMI 5 mM glucose + 10% dialyzed FBS, 1.71 µM
[31] = RPMI 5 mM glucose + 10% dialyzed FBS, 5.12 µM
[32] = RPMI 5 mM glucose + 10% dialyzed FBS, 15.4 µM
[33] = RPMI 5 mM glucose + 10% dialyzed FBS, 46.1 µM

SMILES | cell viability [1] | cell viability [2] | cell viability [3] | cell viability [4] | cell viability [5] | cell viability [6] | cell viability [7] | cell viability [8] | cell viability [9] | cell viability [10] | cell viability [11] | cell viability [12] | cell viability [13] | cell viability [14] | cell viability [15] | cell viability [16] | cell viability [17] | cell viability [18] | cell viability [19] | cell viability [20] | cell viability [21] | cell viability [22] | cell viability [23] | cell viability [24] | cell viability [25] | cell viability [26] | cell viability [27] | cell viability [28] | cell viability [29] | cell viability [30] | cell viability [31] | cell viability [32] | cell viability [33]
NC(=O)C1CCCc2c1[nH]c1ccc(Cl)cc21 (centres undefined) | 112% | 112% | 113% | 114% | 115% | 110% | 105% | 102% | 83.4% | 46.2% | 38.2% | 107% | 111% | 111% | 104% | 108% | 112% | 109% | 109% | 103% | 59.8% | 32.3% | 114% | 101% | 112% | 107% | 112% | 106% | 111% | 94.4% | 93.8% | 48.2% | 18.3%
CN[C@@H](C)C(=O)N[C@H]1CN(C(=O)CC(C)C)CC[C@H]2CC[C@@H](C(=O)NC(c3ccccc3)c3ccccc3)N2C1=O | 98.3% | 104% | 107% | 111% | 110% | 102% | 103% | 100% | 96.7% | 14.8% | 10.2% | 96.8% | 110% | 109% | 111% | 114% | 112% | 112% | 108% | 87.3% | 18.1% | 10.2% | 90.1% | 113% | 101% | 115% | 105% | 111% | 112% | 107% | 97.8% | 43.3% | 16.1%
COC[C@H](c1ccc(C(F)(F)F)cc1)N1CCN(C2(C)CCN(C(=O)c3c(C)ncnc3C)CC2)C[C@H]1C.O=C(O)/C=C\C(=O)O | 92% | 100% | 107% | 111% | 107% | 110% | 113% | 117% | 106% | 103% | 98.5% | 101% | 123% | 109% | 110% | 106% | 121% | 109% | 104% | 105% | 99.8% | 99.3% | 90.1% | 108% | 99.7% | 110% | 103% | 111% | 117% | 110% | 102% | 95.2% | 92.1%
CN1CCC[C@@H]1CCO[C@](C)(c1ccccc1)c1ccc(Cl)cc1 | 94.5% | 100% | 99.3% | 113% | 105% | 104% | 104% | 107% | 112% | 109% | 97.2% | 97.8% | 104% | 106% | 104% | 108% | 98.1% | 104% | 114% | 100% | 119% | 101% | 93.9% | 101% | 111% | 106% | 103% | 100% | 105% | 102% | 104% | 108% | 90%
O=C(Nc1ncc(-c2cc(C(F)F)nn2-c2c(Cl)cccc2Cl)s1)C1CC1 | 116% | 122% | 123% | 131% | 130% | 129% | 126% | 14.2% | 18.3% | 11% | 14.6% |  |  |  |  |  |  |  |  |  |  |  |  |  |  |  |  |  |  |  |  |  | 
CN1CCCC(CC1)N2\N=C(CC3=CC=C(Cl)C=C3)/C4=C(C=CC=C4)C2=O (centres undefined) | 112% | 112% | 116% | 111% | 123% | 112% | 119% | 112% | 116% | 94.5% | 51.9% | 109% | 105% | 113% | 116% | 117% | 126% | 123% | 121% | 122% | 114% | 66.2% | 109% | 109% | 109% | 113% | 124% | 128% | 121% | 114% | 118% | 103% | 65.9%
ClC1=CC\2=C(OC3=C(C=CC=C3)\N=C2N4CCNCC4)C=C1 | 100% | 104% | 113% | 103% | 109% | 101% | 107% | 109% | 99.7% | 98% | 95.5% | 103% | 105% | 107% | 105% | 93.8% | 90.6% | 99.6% | 95.2% | 90.3% | 87.7% | 87.8% | 100% | 102% | 100% | 104% | 99.3% | 99.7% | 99.1% | 92.5% | 89.3% | 98.3% | 88.6%

Reference: the supplement of paper PMC11451515
